# Results from patent US20230234943A1, “TREX1 INHIBITORS AND USES THEREOF” (Tempest Therapeutics, Inc., priority 2020, published 2023).
# Tests used:
# Human TREX1 = molecular target: T1, Human TREX1 (Homo sapiens, UniProt Q9NSU2); assay: Gel assay (orthogonal control, IR-680 oligonucleotide strand degradation); type: biochemical; conditions: polyacrylamide gel, top band intensity; different doses of inhibitor
# T1 sequence (Q9NSU2 1-314): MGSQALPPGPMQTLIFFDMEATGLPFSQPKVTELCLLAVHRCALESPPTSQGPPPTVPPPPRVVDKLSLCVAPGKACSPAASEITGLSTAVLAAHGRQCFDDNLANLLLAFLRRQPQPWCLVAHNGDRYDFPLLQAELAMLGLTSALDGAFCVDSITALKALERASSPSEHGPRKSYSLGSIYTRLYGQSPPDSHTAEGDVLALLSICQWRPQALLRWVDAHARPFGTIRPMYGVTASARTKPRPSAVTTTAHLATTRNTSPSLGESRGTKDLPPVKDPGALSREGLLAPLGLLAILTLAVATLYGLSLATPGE
# Method: A gel assay was conducted as an orthogonal control to confirm observations of TREX1 inhibitors determined with the fluorescence-based assay. Briefly, compounds were diluted in DMSO at 50× the final concentration. Human TREX1 was diluted to […] (2×concentration) in assay buffer (assay buffer: 20 mM Tris pH 7.7 (Life T-echnologies), 5 mM MgCl2 (Sigma), 0.01% HSA (Sigma), 0.01% Brij-35 (ThermoFisher), 2 mM DTT (Sigma)). Oligonucleotide strand (IR-680-5′[…]-3′) (Custom probe made by Trilink) was diluted in the same assay buffer to a working concentration of 25 nM (final concentration of 12.5 nM). Example 107 was added to […] human TREX1 enzyme in clear 96 well plates. The plate was then incubated at 25° C. for 30 minutes. Twenty five nM oligonucleotide strand was added to the plate, to a final concentration of 30 pM TREX1, 12.5 nM oligo, 1× compound and incubated at 25° C. Fifteen minutes later, the reaction was stopped by removing 10 μl of the reaction and adding it to 20 μl of a solution of 50 mM EDTA/1.5× loading dye buffer (6× Orange DNA loading dye; ThermoFisher) in a 96 well PCR plate. […] The top band was quantified using Image Studio (Licor). […] The top band intensity was measured using the Odyssey scanner (Li-Cor) and ImageStudio software (Li-Cor) and FIG. 1B: Graph representing the percent of top band intensity degradation as a measure of human TREX1 activity. […]
# [1] = molecular target: T2, Human TREX1 enzyme (amino acids 1-242) (Homo sapiens, UniProt Q9NSU2); assay: Human TREX1 enzymatic assay with dsDNA native oligonucleotide (Picogreen fluorescence); type: biochemical; conditions: 2 mM dithiothreitol in assay buffer; 50 nM dsDNA oligonucleotide; 30 min preincubation at 25° C.; read-out: TREX1/Human + DTT IC50 AVG
# T2 construct: Human TREX1 enzyme (amino acids 1-242)
# T2 sequence (Q9NSU2 1-242): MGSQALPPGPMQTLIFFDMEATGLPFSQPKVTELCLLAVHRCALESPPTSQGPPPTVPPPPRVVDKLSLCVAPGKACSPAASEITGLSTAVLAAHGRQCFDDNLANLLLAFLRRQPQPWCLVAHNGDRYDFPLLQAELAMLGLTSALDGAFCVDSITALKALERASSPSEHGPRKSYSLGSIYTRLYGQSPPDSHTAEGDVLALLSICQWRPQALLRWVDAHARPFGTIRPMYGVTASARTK
# Summary of the method: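 Remaining dsDNA quantified by Picogreen fluorescence after EDTA quench, with no-enzyme and DMSO wells as controls. Reactions used 50 nM annealed oligonucleotide for 5–15 min at 25 °C, after a 30 min compound–enzyme preincubation (0.8–0.16 nM TREX1; 2% DMSO; pH 7.7 Tris, 5 mM MgCl2).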
SMILES,IC50 [1],melting point,inhibition of human TREX1 / DNA degradation in gel assay (FIGS. 1A and 1B) (Human TREX1)
"COc1cc(-c2nc3ccc(N4CCN(S(C)(=O)=O)CC4)cc3n2C2CCOC2)cc(O)c1O (centres unmarked) [Example 107, 3-methoxy-5-(6-(4-(methylsulfonyl)piperazin-1-yl)-1-(tetrahydrofuran-3-yl)-1H-benzo[d]imidazol-2-yl)benzene-1,2-diol]",1 to 10 µM,,inhibits human TREX1 and prevents DNA degradation
"COc1cc(-c2nc3ccccc3n2C2CCC2)c(C2CC2)c(O)c1O [Example 174, 4-(1-cyclobutyl-1H-benzo[d]imidazol-2-yl)-3-cyclopropyl-6-methoxybenzene-1,2-diol]",10 to 100 µM,209 °C,
"COc1ccc2[nH]c(-c3cc(OC)c(O)c(O)c3C)nc2c1 [Example 175, 6-methoxy-4-(5-methoxy-1H-benzo[d]imidazol-2-yl)-3-methylbenzene-1,2-diol]",10 to 100 µM,249.1 °C,
"COc1cc(-c2nc3ccc(S(C)(=O)=O)cc3n2C2(C)COC2)c(F)c(O)c1O [Example 178, 3-fluoro-4-[6-methanesulfonyl-1-(3-methyloxetan-3-yl)-1H-1,3-benzodiazol-2-yl]-6-methoxybenzene-1,2-diol]",1 to 10 µM,257.6 °C,
"COc1cc(-c2nc3ccc(C#N)cc3n2C2(C)COC2)c(F)c(O)c1O [Example 179, 2-(2-fluoro-3,4-dihydroxy-5-methoxyphenyl)-1-(3-methyloxetan-3-yl)-1H-1,3-benzodiazole-6-carbonitrile]",0.1 to 1 µM,209 °C,

# Continued, in another order:
IC50 [1],melting point,SMILES,inhibition of human TREX1 / DNA degradation in gel assay (FIGS. 1A and 1B) (Human TREX1)
≤ 0.1 µM,170.4 °C,"COc1cc(-c2nc3ccc(C(N)=O)cc3n2C2(C)COC2)c(F)c(O)c1O [Example 180, 2-(2-fluoro-3,4-dihydroxy-5-methoxyphenyl)-1-(3-methyloxetan-3-yl)-1H-1,3-benzodiazole-6-carboxamide]",
> 100 µM,,"Oc1cc(-c2nc3ccccc3n2C2CCC2)cc(OC(F)F)c1O [Example 333, 5-(1-cyclobutyl-1H-benzo[d]imidazol-2-yl)-3-(difluoromethoxy)benzene-1,2-diol]",
0.1 to 1 µM,,"COc1cc(-c2nc3cc(O)ccc3n2C2CCC2)c(C)c(O)c1O [Example 334, 4-(1-cyclobutyl-5-hydroxy-1H-benzo[d]imidazol-2-yl)-6-methoxy-3-methylbenzene-1,2-diol]",
